Results: publication PMC2994877, “A Full Pharmacological Analysis of the Three Turkey β-Adrenoceptors and Comparison with the Human β-Adrenoceptors” (PLoS ONE, 2010)
Where two headings read alike, the source gives them in different places.

How the values were obtained:
[1] = molecular target: T1, turkey β3C-adrenoceptor (tβ3C) (Meleagris gallopavo, UniProt A0A803YLI8); assay: 3H-CGP12177 whole cell binding, CHO tβ3C cells
[2] = molecular target: T2, turkey β4C-adrenoceptor (tβ4C) (Meleagris gallopavo, UniProt P43141); assay: cell-based; format: binding
T2 construct: expressed in transfected cells

[3] = molecular target: Human β3-adrenoceptor; details: Human β3, given for comparison; ref 25 and 30; cited from earlier work
[4] = molecular target: Human β1-adrenoceptor; parameters: method as in PMID 15655528, PMID 20590599; details: Human β1, given for comparison; ref 25 and 30; cited from earlier work
[5] = molecular target: T1, turkey β3C-adrenoceptor (tβ3C); assay: CRE-SPAP production, CHO tβ3C cells; format: cell-based; details: for Emax: read-out: % isop max
[6] = molecular target: T2, turkey β4C-adrenoceptor (tβ4C); assay: cell-based; format: cell-based; details: for % isop max: CRE-SPAP, % of 10 µM isoprenaline maximum
[7] = molecular target: Human β2-adrenoceptor; parameters: method as in PMID 15655528, PMID 20590599; details: Human β2, given for comparison; ref 25 and 30; cited from earlier work
[8] = competition with 3H-CGP12177, whole cells, CHO tβ3C, given as log KD, mean ± s.e.m., read-out: Log KD (converted)
[9] = competition with 3H-CGP12177, whole cells, CHO tβ4C, given as log KD, mean ± s.e.m., read-out: Log KD (converted)
[10] = competition with 3H-CGP12177, whole cells, CHO tβ3C, given as log KD, mean ± s.e.m.
[11] = competition with 3H-CGP12177, whole cells, CHO tβ4C, given as log KD, mean ± s.e.m.

T2 sequence (P43141 whole entry): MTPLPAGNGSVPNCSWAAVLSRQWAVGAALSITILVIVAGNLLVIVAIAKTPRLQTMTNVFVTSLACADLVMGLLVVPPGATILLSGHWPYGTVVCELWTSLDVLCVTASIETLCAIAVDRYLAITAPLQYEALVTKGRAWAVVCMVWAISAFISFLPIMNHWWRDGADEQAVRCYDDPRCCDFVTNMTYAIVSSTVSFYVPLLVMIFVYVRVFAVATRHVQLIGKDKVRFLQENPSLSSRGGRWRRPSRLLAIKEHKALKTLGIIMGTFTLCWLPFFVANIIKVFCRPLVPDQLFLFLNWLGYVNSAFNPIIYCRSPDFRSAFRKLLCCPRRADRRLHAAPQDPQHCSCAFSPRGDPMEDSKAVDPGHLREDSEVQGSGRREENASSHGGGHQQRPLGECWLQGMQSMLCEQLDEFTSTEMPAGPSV
T1 sequence (A0A803YLI8 entry or part of it): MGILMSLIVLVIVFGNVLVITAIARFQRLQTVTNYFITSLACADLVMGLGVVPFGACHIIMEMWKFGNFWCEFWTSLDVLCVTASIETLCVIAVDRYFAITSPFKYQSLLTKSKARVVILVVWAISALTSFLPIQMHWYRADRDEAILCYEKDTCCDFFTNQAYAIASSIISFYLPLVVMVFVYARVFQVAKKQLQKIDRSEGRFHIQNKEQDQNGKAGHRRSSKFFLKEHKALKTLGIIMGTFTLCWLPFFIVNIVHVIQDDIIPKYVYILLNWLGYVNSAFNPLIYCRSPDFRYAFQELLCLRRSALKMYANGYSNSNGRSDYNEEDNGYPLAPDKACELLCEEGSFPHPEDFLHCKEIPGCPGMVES

Compound: CCCC(=O)Nc1ccc(OCC(O)CNC(C)C)c(C(C)=O)c1 (stereo not drawn) [Acebutolol]
- Kd [1, 8]: 4070 nM
- Kd [2, 9]: 3890 nM

Compound: C=CCc1ccccc1OCC(O)CNC(C)C (stereo not drawn) [Alprenolol]
- Kd [1]: 3.63 nM
- Kd [2, 9]: 14.1 nM
- Log KD [3]: −6.93

Compound: CC(C)NCC(O)COc1ccc(CC(N)=O)cc1 (stereo not drawn) [Atenolol]
- Kd [1, 8]: 17800 nM
- Kd [2, 9]: 17400 nM

Compound: CC(C)NCC(O)COc1ccc(CCOCC2CC2)cc1 (stereo not drawn) [Betaxalol]
- Kd [2, 9]: 575 nM
- Log KD [3]: −5.97

Compound: CC(C)NCC(O)COc1ccc(COCCOC(C)C)cc1 (stereo not drawn) [Bisoprolol]
- Kd [1, 8]: 2630 nM
- Kd [2, 9]: 550 nM

Compound: Cc1ccc(Cl)c(OCC(O)CNC(C)(C)C)c1 (stereo not drawn) [Bupranolol]
- Kd [1, 8]: 0.851 nM
- Kd [2, 9]: 6.61 nM
- Log KD [4]: −8.51
- Log KD [3]: −7.04

Compound: Cn1cc(C(F)(F)F)nc1-c1ccc(OCC(O)CNCCOc2ccc(O)c(C(N)=O)c2)cc1 (stereo not drawn) [CGP20712A]
- Kd [1]: 3980 nM
- Kd ([5]; Log KD CGP20712A, vs agonist BRL37344, CRE-SPAP, CHO tβ3C cells): 3090 nM
- Kd ([5]; Log KD CGP20712A, vs agonist CGP12177, CRE-SPAP, CHO tβ3C cells): 2690 nM
- Kd ([5]; Log KD CGP20712A, vs agonist adrenaline, CRE-SPAP, CHO tβ3C cells): 4570 nM
- Kd ([5]; Log KD CGP20712A, vs agonist cimaterol, CRE-SPAP, CHO tβ3C cells): 3470 nM
- Kd ([5]; Log KD CGP20712A, vs agonist clenbuterol, CRE-SPAP, CHO tβ3C cells): 1780 nM
- Kd ([5]; Log KD CGP20712A, vs agonist dobutamine, CRE-SPAP, CHO tβ3C cells): 7410 nM
- Kd ([5]; Log KD CGP20712A, vs agonist fenoterol, CRE-SPAP, CHO tβ3C cells): 2450 nM
- Kd ([5]; Log KD CGP20712A, vs agonist formoterol, CRE-SPAP, CHO tβ3C cells): 3630 nM
- Kd ([5]; Log KD CGP20712A, vs agonist isoprenaline, CRE-SPAP, CHO tβ3C cells): 3720 nM
- Kd ([5]; Log KD CGP20712A, vs agonist noradrenaline, CRE-SPAP, CHO tβ3C cells): 5250 nM
- Kd ([5]; Log KD CGP20712A, vs agonist salbutamol, CRE-SPAP, CHO tβ3C cells): 3240 nM
- Kd ([5]; Log KD CGP20712A, vs agonist salmeterol, CRE-SPAP, CHO tβ3C cells): 6310 nM

Compound: C[C@H](Cc1ccc2c(c1)OC(C(=O)[O-])(C(=O)[O-])O2)NC[C@H](O)c1cccc(Cl)c1.[Na+].[Na+] [CL316243]
- Log KD [1, 10]: >−4
- Log KD [2, 11]: >−4
- Log KD [4]: >−3
- Log KD [3]: −5.11

Compound: CC(C)NCC(O)COc1cccc2[nH]c3ccccc3c12 (stereo not drawn) [Carazolol]
- Kd [1, 8]: 0.012 nM
- Kd [2, 9]: 0.0537 nM
- Log KD [3]: −8.35

Compound: COc1ccccc1OCCNCC(O)COc1cccc2[nH]c3ccccc3c12 (stereo not drawn) [Carvedilol]
- Kd [2, 9]: 0.123 nM

Compound: CC(C)NCC(O)c1ccc(N)c(C#N)c1 (stereo not drawn) [Cimaterol]
- Emax [5]: 103 ± 2.2%
- % isop max ([6]; CHO tβ4C cells): 98.2±2.3%
- Log KD [7]: −7.26
- Log KD [3]: −5.28

Compound: COc1ccc(CCNC[C@H](O)c2ccc(O)cc2)cc1OC [Denopamine]
- Kd [1, 8]: 2340 nM
- Kd [2, 9]: 1120 nM
- Log KD [7]: −5.83
- Log KD [3]: −5.30

Compound: COc1ccc(CC(C)NCC(O)c2ccc(O)c(NC=O)c2)cc1 (stereo not drawn) [Formoterol]
- Kd [1]: 11 nM
- Kd [2]: 20 nM
- EC50 [5]: 0.0447 nM
- EC50 [6]: 0.166 nM
- Log KD [3]: −5.82

Compound: Cc1ccc(OCC(O)C(C)NC(C)C)c2c1CCC2 (stereo not drawn) [ICI118551]
- Kd [1]: 1.17 nM
- Kd ([5]; Log KD ICI118551, vs agonist BRL37344, CRE-SPAP, CHO tβ3C cells): 0.49 nM
- Kd ([5]; Log KD ICI118551, vs agonist CGP12177, CRE-SPAP, CHO tβ3C cells): 0.316 nM
- Kd ([5]; Log KD ICI118551, vs agonist adrenaline, CRE-SPAP, CHO tβ3C cells): 1.62 nM
- Kd ([5]; Log KD ICI118551, vs agonist cimaterol, CRE-SPAP, CHO tβ3C cells): 0.398 nM
- Kd ([5]; Log KD ICI118551, vs agonist clenbuterol, CRE-SPAP, CHO tβ3C cells): 0.339 nM
- Kd ([5]; Log KD ICI118551, vs agonist dobutamine, CRE-SPAP, CHO tβ3C cells): 1.15 nM
- Kd ([5]; Log KD ICI118551, vs agonist fenoterol, CRE-SPAP, CHO tβ3C cells): 0.457 nM
- Kd ([5]; Log KD ICI118551, vs agonist formoterol, CRE-SPAP, CHO tβ3C cells): 0.513 nM
- Kd ([5]; Log KD ICI118551, vs agonist isoprenaline, CRE-SPAP, CHO tβ3C cells): 2.51 nM
- Kd ([5]; Log KD ICI118551, vs agonist noradrenaline, CRE-SPAP, CHO tβ3C cells): 1.38 nM
- Kd ([5]; Log KD ICI118551, vs agonist salbutamol, CRE-SPAP, CHO tβ3C cells): 0.49 nM
- Kd ([5]; Log KD ICI118551, vs agonist salmeterol, CRE-SPAP, CHO tβ3C cells): 0.617 nM

Compound: O=C(O)COc1ccc(OCCNC[C@H](O)COc2ccccc2)cc1 [ICI215001]
- Log KD [1, 10]: −5.31±0.09
- Log KD [2, 11]: −6.55±0.06
- Log KD [3]: −6.63

Compound: CC(C)NCC(O)c1ccc(O)c(O)c1 (stereo not drawn) [Isoprenaline]
- Kd [1]: 316 nM
- EC50 [5]: 26.9 nM
- % isop max ([5]; CRE-SPAP, % of 10 µM isoprenaline maximum, CHO tβ3C cells): 100%
- % isop max ([6]; CHO tβ4C cells): 100%
- CRE-SPAP gene transcription response ([6]; tβ4C): 2.47±0.10 fold over basal
- Log KD [3]: −5.52

Compound: CC(CCc1ccccc1)NCC(O)c1ccc(O)c(C(N)=O)c1 (stereo not drawn) [Labetolol]
- Log KD [1, 10]: −7.42±0.04
- Log KD [2, 11]: −7.70±0.04
- Log KD [3]: −6.18

Compound: COCCc1ccc(OCC(O)CNC(C)C)cc1 (stereo not drawn) [Metoprolol]
- Kd [1]: 1100 nM
- Kd [2]: 1660 nM

Compound: OC(CNCC(O)C1CCc2cc(F)ccc2O1)C1CCc2cc(F)ccc2O1 (stereo not drawn) [Nebivolol]
- Kd [1, 8]: 16.6 nM
- Kd [2, 9]: 1.48 nM
- Log KD [7]: −7.92
- Log KD [3]: −7.04

Compound: CC(C)NCC(O)COc1cccc2[nH]ccc12 (stereo not drawn) [Pindolol]
- Kd [1]: 1.95 nM
- Kd [2, 9]: 5.25 nM

Compound: CC(C)OC(=O)c1cc2c(OCC(O)CNC(C)(C)C)cccc2[nH]1 (stereo not drawn) [SDZ21009]
- Log KD [1, 10]: −10.17±0.08
- Log KD [2, 11]: −9.06±0.07
- Log KD [7]: −10.28
- Log KD [3]: −7.10

Compound: CCc1ccccc1OC[C@@H](O)CN[C@H]1CCCc2ccccc21.O=C(O)C(=O)O [SR59230A, 3-(2-Ethylphenoxy)-1-[(1,S)-1,2,3,4-tetrahydronapth-1-ylamino]-2S-2-propanol oxalate]
- Log KD [1, 10]: −7.96±0.08
- Log KD [2, 11]: −7.65±0.06
- Log KD [7]: −8.45
- Log KD [3]: −7.37

Compound: CC(C)(C)NCC(O)c1ccc(O)c(CO)c1 (stereo not drawn) [Salbutamol]
- Kd [1]: 724 nM
- Kd [2, 9]: 4370 nM
- EC50 ([5]; CRE-SPAP production, CHO tβ3C cells, read-out: Log EC50 (converted)): 3.55 nM
- Emax [5]: 102 ± 3.1%
- EC50 ([6]; CRE-SPAP production, CHO tβ4C cells, read-out: Log EC50 (converted)): 42.7 nM
- % isop max ([6]; CHO tβ4C cells): 99.9±2.3%

Compound: OCc1cc(C(O)CNCCCCCCOCCCCc2ccccc2)ccc1O (stereo not drawn) [Salmeterol]
- Kd [1]: 3.16 nM
- Kd [2]: 81.3 nM
- EC50 [5]: 0.0372 nM
- Emax [5]: 96 ± 5.7%
- EC50 [6]: 3.98 nM
- % isop max ([6]; CHO tβ4C cells): 102.5±2.8%
- Log KD [3]: −6.33

Compound: CC(C)NCC(O)c1ccc(NS(C)(=O)=O)cc1 (stereo not drawn) [Sotalol]
- Kd [1, 8]: 537 nM
- Kd [2, 9]: 692 nM
- Log KD [3]: −5.05

Compound: CC(C)(C)NCC(O)c1cc(O)cc(O)c1 (stereo not drawn) [Terbutaline]
- Kd [1]: 2400 nM
- Kd [2, 9]: 33900 nM

Compound: CC(C)(C)NC[C@H](O)COc1nsnc1N1CCOCC1 [Timolol]
- Kd [2, 9]: 2 nM
- Log KD [3]: −6.80

Compound: CC(C)(C)NCC(O)c1ccccc1Cl (stereo not drawn) [Tulobuterol]
- Kd [1]: 229 nM
- Kd [2, 9]: 3470 nM
- Log KD [7]: −6.83
- Log KD [3]: −4.72

Compound: O=C(NCCNCC(O)COc1ccc(O)cc1)N1CCOCC1 (stereo not drawn) [Xamoterol]
- Kd [1]: 2290 nM
- Kd [2]: 589 nM

Compound: COCCNC(=O)COc1ccc(OCCNC[C@H](O)COc2ccccc2)cc1 [ZD7114]
- Log KD [1, 10]: −6.59±0.10
- Log KD [2, 11]: −7.59±0.04
- Log KD [7]: −7.31
- Log KD [3]: −6.78
